# Active and inactive are the calls of the source. The rule behind the calls is not given here.
# Tests used:
# [1] = Half life in human liver microsomes after 10 to 60 mins in presence of NADPH by LC/MS/MS analysis; format: ADME, microsome
# Staphylococcus aureus [2] = experiment: Antibacterial activity against methicillin-resistant Staphylococcus aureus 2658 RCMB after 18 to 20 hrs by broth microdilution method; format: functional
# Staphylococcus aureus [3] = experiment: Antibacterial activity against methicillin-resistant Staphylococcus aureus USA300 infected in Balb/c mouse assessed as reduction in bacterial load in wound at 2% administered topically bid for 3 days starting 48 hrs post infection relative to control; format: functional
# [4] = Half life in human liver microsomes after 10 to 60 mins in absence of NADPH by LC/MS/MS analysis; format: ADME, microsome
# [5] = Drug metabolism in Sprague-Dawley rat urine assessed as […] at 50 mg/kg administered via oral gavage after 24 hrs by LC/MS/MS analysis; format: ADME, organism-based; details: in vivo
# [6] = Intrinsic clearance in human liver microsomes after 10 to 60 mins in presence of NADPH by LC/MS/MS analysis; format: ADME, microsome; details: read-out: CLH
# [7] = Drug metabolism in Sprague-Dawley rat urine assessed as CYP450-mediated oxidation at 50 mg/kg administered via oral gavage after 24 hrs by LC/MS/MS analysis; format: ADME, organism-based; details: in vivo
# [8] = Drug metabolism in Sprague-Dawley rat serum assessed as CYP450-mediated oxidation at 50 mg/kg administered via oral gavage after 6 hrs by LC/MS/MS analysis; format: ADME, organism-based; details: in vivo
# [9] = Drug metabolism in Sprague-Dawley rat serum assessed as […] at 50 mg/kg administered via oral gavage after 6 hrs by LC/MS/MS analysis; format: ADME, organism-based; details: in vivo
# J774 = experiment: Cytotoxicity against mouse J774 cells assessed as decrease in cell viability up to 16 ug/ml after 2 hrs by MTS assay; format: cell-based; details: j774, 2 h
# Staphylococcus aureus [10] = experiment: Bactericidal activity against vancomycin-resistant Staphylococcus aureus VRSA10 clinical isolate after 24 hrs; format: functional; details: VRSA10, 24 h
# Staphylococcus aureus [11] = experiment: Ratio of MBC to MIC for methicillin/ciprofloxacin/gentamicin/clindamycin-resistant Staphylococcus aureus USA200 NRS383 clinical isolate; format: functional
# Staphylococcus aureus [12] = experiment: Bactericidal activity against methicillin/erythromycin/tetracycline-resistant Staphylococcus aureus USA300 NRS384 clinical isolate after 24 hrs; format: functional
# Staphylococcus aureus [13] = experiment: Bactericidal activity against mupirocin/rifampicin-resistant Staphylococcus aureus RN4220 NRS107 clinical isolate after 24 hrs; format: functional; details: RN4220 NRS107, 24 h
# [14] = Intrinsic clearance in human liver microsomes after 10 to 60 mins in absence of NADPH by LC/MS/MS analysis; format: ADME, microsome; details: read-out: CLH
# Staphylococcus aureus [15] = experiment: Bactericidal activity against methicillin/ciprofloxacin/clindamycin-resistant Staphylococcus aureus USA100 NRS382 clinical isolate after 24 hrs; format: functional
# Staphylococcus aureus [16] = experiment: Potentiation of vancomycin-mediated antibacterial activity against vancomycin-resistant Staphylococcus aureus VRSA10 clinical isolate assessed as reduction in vancomycin MIC at 0.5 times MIC preincubated for 30 mins followed by vancomycin addition measured after 20 to 22 hrs relative to control; format: functional
# Staphylococcus aureus [17] = experiment: Antibacterial activity against methicillin-resistant Staphylococcus aureus USA400 NRS123 clinical isolate infected in mouse J774 cells assessed as reduction of bacterial load at 16 ug/ml after 24 hrs relative to control; format: functional; details: USA400 NRS123, J774, 24 h
# Staphylococcus aureus [18] = experiment: Antibacterial activity against methicillin/ciprofloxacin/gentamicin/clindamycin-resistant Staphylococcus aureus USA200 NRS383 clinical isolate after 18 to 20 hrs by broth microdilution method; format: functional
# Staphylococcus aureus [19] = experiment: Antibacterial activity against methicillin-resistant Staphylococcus aureus USA400 NRS123 clinical isolate infected in mouse J774 cells assessed as reduction of bacterial load at 16 ug/ml after 8 hrs; format: functional, cell-based
# Staphylococcus aureus [20] = experiment: Antibacterial activity against methicillin/ciprofloxacin/clindamycin-resistant Staphylococcus aureus USA100 NRS382 clinical isolate after 18 to 20 hrs by broth microdilution method; format: functional
# Staphylococcus aureus [21] = experiment: Antibacterial activity against methicillin/erythromycin/tetracycline-resistant Staphylococcus aureus USA300 NRS384 clinical isolate after 18 to 20 hrs by broth microdilution method; format: functional
# Staphylococcus aureus [22] = experiment: Potency index, ratio of vancomycin MIC to test compound MIC for methicillin-resistant Staphylococcus aureus 2658 RCMB; format: functional
# HaCaT [23] = experiment: Cytotoxicity against human HaCaT cells assessed as decrease in cell viability up to 32 ug/ml after 2 hrs by MTS assay; format: cell-based
# Staphylococcus aureus [24] = experiment: Antibacterial activity against methicillin-resistant Staphylococcus aureus USA400 NRS123 clinical isolate after 18 to 20 hrs by broth microdilution method; format: functional
# Staphylococcus aureus [25] = experiment: Antibacterial activity against mupirocin/rifampicin-resistant Staphylococcus aureus RN4220 NRS107 clinical isolate after 18 to 20 hrs by broth microdilution method; format: functional
# Staphylococcus aureus [26] = experiment: Antibacterial activity against methicillin-resistant Staphylococcus aureus USA400 NRS123 clinical isolate infected in mouse J774 cells assessed as reduction of bacterial load at 16 ug/ml after 12 hrs relative to control; format: functional; details: USA400 NRS123, J774, 12 h
# HaCaT [27] = experiment: Cytotoxicity against human HaCaT cells assessed as decrease in cell viability at 64 ug/ml after 2 hrs by MTS assay; format: cell-based
# Staphylococcus aureus [28] = experiment: Bactericidal activity against vancomycin-resistant Staphylococcus aureus VRSA4 clinical isolate after 24 hrs; format: functional; details: VRSA4, 24 h
# Staphylococcus aureus [29] = experiment: Ratio of MBC to MIC for methicillin/erythromycin/tetracycline-resistant Staphylococcus aureus USA300 NRS384 clinical isolate; format: functional
# Staphylococcus aureus [30] = experiment: Bactericidal activity against methicillin-resistant Staphylococcus aureus USA400 NRS123 clinical isolate after 24 hrs; format: functional
# Staphylococcus aureus [31] = experiment: Potentiation of vancomycin-mediated antibacterial activity against vancomycin-resistant Staphylococcus aureus VRSA4 clinical isolate assessed as reduction in vancomycin MIC at 0.5 times MIC preincubated for 30 mins followed by vancomycin addition measured after 20 to 22 hrs relative to control; format: functional
# Staphylococcus aureus [32] = experiment: Antibacterial activity against vancomycin-resistant Staphylococcus aureus VRSA10 clinical isolate after 18 to 20 hrs by broth microdilution method; format: functional
# Staphylococcus aureus [33] = experiment: Ratio of MBC to MIC for methicillin-resistant Staphylococcus aureus USA400 NRS123 clinical isolate; format: functional
# Staphylococcus aureus [34] = experiment: Antibacterial activity against vancomycin-resistant Staphylococcus aureus VRSA4 clinical isolate after 18 to 20 hrs by broth microdilution method; format: functional
# Staphylococcus aureus [35] = experiment: Bactericidal activity against methicillin/ciprofloxacin/gentamicin/clindamycin-resistant Staphylococcus aureus USA200 NRS383 clinical isolate after 24 hrs; format: functional
# Staphylococcus aureus [36] = experiment: Bactericidal activity against methicillin-resistant Staphylococcus aureus USA400 NRS123 clinical isolate assessed as time required to reduce 3 log10CFU of bacterial load at 4 times MIC by time kill assay; format: functional
smiles,measurement,setting,value
CCCCc1ccc(-c2nc(C)c(/C(C)=N/NC(=N)N)s2)cc1,half-life,[1],0.48 h
same,MIC,Staphylococcus aureus [2],3.75 µg/mL
same,Activity,Staphylococcus aureus [3],2.36 deltalog10CFU
same,half-life,[4],> 1 h
same,Drug metabolism,[5],Metabolite_Detected
same,microsomal CLint,[6],80.3 µL/min/mg
same,Drug metabolism,[7],Metabolite_Detected
same,Drug metabolism,[8],Metabolite_Detected
same,Drug metabolism,[9],Metabolite_Detected
C/C(=N\NC(=N)N)c1sc(-c2ccc(OC3CCCCCC3)cc2)nc1C,Activity,J774,Non-Toxic
same,MBC,Staphylococcus aureus [10],4 µg/mL
same,Ratio,Staphylococcus aureus [11],>3
same,Activity,Staphylococcus aureus [12],Dose-dependent effect
same,MBC,"Staphylococcus aureus [12]; USA300 NRS384, 24 h",16 µg/mL
same,MBC,Staphylococcus aureus [13],8 µg/mL
same,half-life,[1],> 4 h
same,MIC,Staphylococcus aureus [2],0.98 µg/mL
same,microsomal CLint,[14],< 9.6 µL/min/mg
same,Activity,Staphylococcus aureus [15],Dose-dependent effect
same,MBC,"Staphylococcus aureus [15]; USA100 NRS382, 24 h",4 µg/mL
same,fold change (FC),Staphylococcus aureus [16],256
same,half-life,[4],> 4 h
same,inhibition at 16 µg/mL,Staphylococcus aureus [17],70%
same,MIC,Staphylococcus aureus [18],2 µg/mL
same,Activity,Staphylococcus aureus [19],inactive
same,MIC,Staphylococcus aureus [20],2 µg/mL
same,microsomal CLint,[6],< 9.6 µL/min/mg
same,MIC,Staphylococcus aureus [21],4 µg/mL
same,Ratio,Staphylococcus aureus [22],1
same,Activity,HaCaT [23],Non-Toxic
same,MIC,Staphylococcus aureus [24],4 µg/mL
same,MIC,Staphylococcus aureus [25],4 µg/mL
same,inhibition at 16 µg/mL,Staphylococcus aureus [26],48%
same,Activity,HaCaT [27],Toxic
same,MBC,Staphylococcus aureus [28],4 µg/mL
same,Ratio,Staphylococcus aureus [29],>3
same,Activity,Staphylococcus aureus [30],Dose-dependent effect
same,MBC,"Staphylococcus aureus [30]; USA400 NRS123, 24 h",16 µg/mL
same,fold change (FC),Staphylococcus aureus [31],16
same,MIC,Staphylococcus aureus [32],4 µg/mL
same,Ratio,Staphylococcus aureus [33],>3
same,MIC,Staphylococcus aureus [34],4 µg/mL
same,Activity,Staphylococcus aureus [35],Dose-dependent effect
same,MBC,"Staphylococcus aureus [35]; USA200 NRS383, 24 h",8 µg/mL
same,Time,Staphylococcus aureus [36],48 h
